Key:
Type in all cases: in vivo
[1] = Insecticidal evaluation of fraction 1 and fraction 3 (resolved isomers); settings: fraction 1 (92.9% isomer A) against fraction 3
Experimental: (±)-1,1,1-trifluoro-2-(4-ethoxyphenyl)-3-(3-phenoxybenzyloxy)propane was resolved by high pressure liquid chromatography, using a Pirkle type 1A column (25 cm×4.9 mm) at -20° C., and n-hexane containing 1% by volume chloroform as eluent, at a flow rate of 0.7 cm^3 /minute. Elution was monitored using a UV detector at […]. Two isomers were detected:isomer A (retention time ca. 51 minutes) and isomer B (retention time ca. 54.6 minutes). A total of three fractions were collected.

Tetranychus urticae = assay: Insecticidal/acaricidal test, Tetranychus urticae (spider mites - adult), contact; settings: 72 h, French bean leaf, 3 days, read-out: grading of mortality, TU
How it was run: (§1)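 Compound dissolved in acetone, diluted with water containing 0.01% wetting agent to 500, 250 or 100 ppm. Pests on host plant or food; pests and/or medium treated. Mortality scored 1–3 days later, graded A (80–100%; 70–100% for S. exigua), B (50–79%; 50–69%), C (<50%).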

Myzus persicae = assay: Insecticidal test, Myzus persicae (aphids), contact; settings: 72 h, Chinese Cabbage leaf, 3 days, read-out: grading of mortality, MP
How it was run: as §1

Nilaparvata lugens = assay: Insecticidal test, Nilaparvata lugens (brown planthopper), contact; settings: 72 h, Cabbage leaf, 3 days, read-out: grading of mortality, NL
How it was run: as §1

Musca domestica [2] = assay: Knockdown test, Musca domestica (houseflies - adults); settings: cotton wool/sugar, 4 hours, read-out: grading of knockdown, MD/KD
How it was run: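 Adult houseflies were exposed to the compound as aqueous acetone preparations with 0.01% Lissapol NX wetting agent, at 500, 250 or 100 ppm. Knockdown was graded A (80–100%), B (50–79%) or C (<50%).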

Musca domestica [3] = assay: Insecticidal test, Musca domestica (houseflies - adults), contact; settings: 24 h, cotton wool/sugar, 1 day, read-out: grading of mortality, MD
How it was run: as §1

Blattella germanica = assay: Insecticidal test, Blattella germanica (cockroach nymphs), residual; settings: 72 h, plastic pot, 3 days, read-out: grading of mortality, BG
How it was run: as §1

Heliothis virescens = assay: whole plant or invertebrate; settings: in Gossypium hirsutum, 72 h, read-out: grading of mortality, HV
How it was run: as §1

Spodoptera exigua = assay: Insecticidal test, Spodoptera exigua (lesser armyworm), residual; settings: 72 h, cotton leaf, 3 days, read-out: grading of mortality, SE
Experimental: The activity of the Product was determined using a variety of insect and acarine pests. The Product was used in the form of liquid preparations containing 500, 250 or 100 parts per million (ppm) by weight of the Product. The preparations were made by dissolving the Product in acetone and diluting the solutions with water containing 0.01% by weight of a wetting agent sold under the trade name "LISSAPOL" NX until the liquid preparations contained the required concentratio of the Product. "Lissapol" is a Registered Trade Mark.
The test procedure adopted with regard to each pest was basically the same and comprised supporting a number of the pests on a medium which was usually a host plant or a foodstuff on which the pests feed, and treating either or both the pests and the medium with the preparations. The mortality of the pests was then assessed at periods usually varying from one to three days after the treatment.
The results of the tests are given in Table IV for each of the Products, at the rate in parts per million given in the second column as a grading of mortality designated as A, B or C wherein A indicates 80-100% mortality or knockdown (70-100% in the case of Spodoptera exigua), B indicates 50-79% mortality or knockdown (50-69% in the case of Spodoptera exigua) and C indicates less than 50% mortality or knockdown.
In Table IV the pest organism used is designated by a letter code and the pest species, the support medium or food, and the type and duration of test is given in Table III.

Diabrotica balteata = assay: Insecticidal test, Diabrotica balteata (rootworm larvae), residual; settings: 72 h, filter paper/maize seed, 3 days, read-out: grading of mortality, DB
How it was run: as §1

Structure (SMILES): CCOc1ccc(C(COCc2cccc(Oc3ccccc3)c2)C(F)(F)F)cc1 (single isomer, unassigned) [isomer A, (+)-1,1,1-trifluoro-2-(4-ethoxyphenyl)-3-(3-p-henoxybenzyloxy)-propane]
- insecticidal activity of isomer A relative to isomer B [1]: substantially more active than isomer B

Structure (SMILES): OC(COCc1ccc(F)c(Oc2ccccc2)c1)(c1ccc(Br)cc1)C(F)(F)F (stereo not shown) [Compound 127, 1,1,1-Trifluoro-2-(4-bromophenyl)-3-(3-phenoxy-4-fluorobenzyloxy)propan-2-ol]
- mortality at 500 ppm (Tetranychus urticae): < 50%
- mortality at 500 ppm (Myzus persicae): < 50%
- mortality at 500 ppm (Nilaparvata lugens): < 50%
- pest or weed control at 500 ppm (Musca domestica [2]): 80 to 100%
- mortality at 500 ppm (Musca domestica [3]): 50 to 79%
- mortality at 500 ppm (Blattella germanica): < 50%
- mortality at 500 ppm (Heliothis virescens): < 50%
- mortality at 500 ppm (Spodoptera exigua): 50 to 69%
- mortality at 500 ppm (Diabrotica balteata): 80 to 100%

Structure (SMILES): Fc1ccc(C(Cl)(COCc2ccc(F)c(Oc3ccccc3)c2)C(F)(F)F)cc1 (stereo not shown) [Compound 51, 1,1,1-Trifluoro-2-chloro-2-(4-fluorophenyl)-3-(3-phenoxy-4-fluorobenzyloxy)propane]
- mortality at 100 ppm (Tetranychus urticae): < 50%
- mortality at 100 ppm (Myzus persicae): < 50%
- mortality at 100 ppm (Nilaparvata lugens): 50 to 79%
- pest or weed control at 100 ppm (Musca domestica [2]): < 50%
- mortality at 100 ppm (Musca domestica [3]): < 50%
- mortality at 100 ppm (Blattella germanica): < 50%
- mortality at 100 ppm (Heliothis virescens): 80 to 100%
- mortality at 100 ppm (Spodoptera exigua): 70 to 100%
- mortality at 100 ppm (Diabrotica balteata): 80 to 100%

Structure (SMILES): CC(C)(C)c1ccc(C(COCc2ccc(F)c(Oc3ccccc3)c2)C(F)(F)F)cc1 (stereo not shown) [Compound 21, 1,1,1-Trifluoro-2-(4-t-butylphenyl)-3-(3-phenoxy-4-fluorobenzyloxy)propane]
- mortality at 500 ppm (Tetranychus urticae): 80 to 100%
- mortality at 500 ppm (Myzus persicae): 80 to 100%
- mortality at 500 ppm (Nilaparvata lugens): < 50%
- pest or weed control at 500 ppm (Musca domestica [2]): 80 to 100%
- mortality at 500 ppm (Musca domestica [3]): 80 to 100%
- mortality at 500 ppm (Blattella germanica): 50 to 79%
- mortality at 500 ppm (Heliothis virescens): 80 to 100%
- mortality at 500 ppm (Spodoptera exigua): 70 to 100%
- mortality at 500 ppm (Diabrotica balteata): 80 to 100%

Structure (SMILES): FC(F)(F)Oc1ccc(C(Cl)(COCc2cccc(Oc3ccc(Cl)cc3)c2)C(F)(F)F)cc1 (stereo not shown) [Compound 60, 1,1,1-Trifluoro-2-chloro-2-(4-trifluoromethoxyphenyl)-3-(3-(4-chlorophenoxy)benzyloxy)propane]
- mortality at 100 ppm (Tetranychus urticae): < 50%
- mortality at 100 ppm (Myzus persicae): 50 to 79%
- mortality at 100 ppm (Nilaparvata lugens): 80 to 100%
- pest or weed control at 100 ppm (Musca domestica [2]): < 50%
- mortality at 100 ppm (Musca domestica [3]): < 50%
- mortality at 100 ppm (Blattella germanica): 80 to 100%
- mortality at 100 ppm (Heliothis virescens): 80 to 100%
- mortality at 100 ppm (Spodoptera exigua): 70 to 100%
- mortality at 100 ppm (Diabrotica balteata): < 50%

Structure (SMILES): COCc1ccc(C(COCc2cccc(Oc3ccc(Cl)cc3)c2)C(F)(F)F)cc1 (stereo not shown) [Compound 23, 1,1,1-Trifluoro-2-(4-methoxymethylphenyl)-3-(3-(4-chlorophenoxy)benzyloxy)propane]
- mortality at 500 ppm (Tetranychus urticae): < 50%
- mortality at 500 ppm (Myzus persicae): 50 to 79%
- mortality at 500 ppm (Nilaparvata lugens): 80 to 100%
- pest or weed control at 500 ppm (Musca domestica [2]): 80 to 100%
- mortality at 500 ppm (Musca domestica [3]): 50 to 79%
- mortality at 500 ppm (Blattella germanica): < 50%
- mortality at 500 ppm (Heliothis virescens): < 50%
- mortality at 500 ppm (Spodoptera exigua): 70 to 100%
- mortality at 500 ppm (Diabrotica balteata): 80 to 100%

Structure (SMILES): CCOc1ccc([C@H](CO[C@H](C)c2cccc(Oc3ccccc3)c2)C(F)(F)F)cc1 (racemic) [Compound 256, (2RS)-1,1,1-trifluoro-2-(4-ethoxyphenyl)-3-[(1RS)-1-(3-phenoxyphenyl)ethoxy]propane]
- mortality at 500 ppm (Tetranychus urticae): < 50%
- mortality at 500 ppm (Myzus persicae): 80 to 100%
- mortality at 500 ppm (Nilaparvata lugens): 80 to 100%
- pest or weed control at 500 ppm (Musca domestica [2]): 50 to 79%
- mortality at 500 ppm (Musca domestica [3]): 80 to 100%
- mortality at 500 ppm (Blattella germanica): < 50%
- mortality at 500 ppm (Heliothis virescens): 80 to 100%
- mortality at 500 ppm (Spodoptera exigua): < 50%
- mortality at 500 ppm (Diabrotica balteata): < 50%

Structure (SMILES): Fc1ccc(C(COCc2ccc(F)c(Oc3ccccc3)c2)C(F)(F)F)cc1 (stereo not shown) [Compound 18, 1,1,1-Trifluoro-2-(4-fluorophenyl)-3-(3-phenoxy-4-fluorobenzyloxy)propane]
- mortality at 250 ppm (Tetranychus urticae; 250 ppm): 80 to 100%
- mortality at 250 ppm (Myzus persicae; 250 ppm): 80 to 100%
- mortality at 250 ppm (Nilaparvata lugens; 250 ppm): 80 to 100%
- pest or weed control at 250 ppm (Musca domestica [2]; 250 ppm): 80 to 100%
- mortality at 250 ppm (Musca domestica [3]; 250 ppm): 80 to 100%
- mortality at 250 ppm (Blattella germanica; 250 ppm): 80 to 100%
- mortality at 250 ppm (Heliothis virescens): 80 to 100%
- mortality at 250 ppm (Spodoptera exigua; 250 ppm): 70 to 100%
- mortality at 250 ppm (Diabrotica balteata; 250 ppm): 80 to 100%

Structure (SMILES): CCOc1ccc([C@H](CO[C@@H](C#N)c2cccc(Oc3ccccc3)c2)C(F)(F)F)cc1 (racemic) [Compound 252, (2RS)-1,1,1-trifluoro-2-(4-ethoxyphenyl)-3-[(RS)-α-cyano-3-phenoxybenzyloxy]propane]
- mortality at 500 ppm (Tetranychus urticae): < 50%
- mortality at 500 ppm (Myzus persicae): 80 to 100%
- mortality at 500 ppm (Nilaparvata lugens): 80 to 100%
- pest or weed control at 500 ppm (Musca domestica [2]): 80 to 100%
- mortality at 500 ppm (Musca domestica [3]): 80 to 100%
- mortality at 500 ppm (Blattella germanica): 50 to 79%
- mortality at 500 ppm (Heliothis virescens): 80 to 100%
- mortality at 500 ppm (Spodoptera exigua): 70 to 100%
- mortality at 500 ppm (Diabrotica balteata): 80 to 100%

Structure (SMILES): Fc1ccc(COCC(c2ccc(OC(F)(F)F)cc2)C(F)(F)F)cc1Oc1ccccc1 (stereo not shown) [Compound 25, 1,1,1-Trifluoro-2-(4-trifluoromethoxyphenyl)-3-(3-phenoxy-4-fluorobenzyloxy)propane]
- mortality at 100 ppm (Tetranychus urticae): 80 to 100%
- mortality at 100 ppm (Myzus persicae): 80 to 100%
- mortality at 100 ppm (Nilaparvata lugens): 80 to 100%
- pest or weed control at 100 ppm (Musca domestica [2]): 80 to 100%
- mortality at 100 ppm (Musca domestica [3]): 80 to 100%
- mortality at 100 ppm (Blattella germanica): 80 to 100%
- mortality at 100 ppm (Heliothis virescens): 80 to 100%
- mortality at 100 ppm (Spodoptera exigua): 70 to 100%
- mortality at 100 ppm (Diabrotica balteata): 80 to 100%

Structure (SMILES): OC(COCc1cccc(Oc2ccccc2)c1)(c1ccc(C(F)(F)F)cc1)C(F)(F)F (stereo not shown) [Compound 137, 1,1,1-Trifluoro-2-(4-trifluoromethylphenyl)-3-(3-phenoxybenzyloxy)propan-2-ol]
- mortality at 500 ppm (Tetranychus urticae): < 50%
- mortality at 500 ppm (Myzus persicae): 80 to 100%
- mortality at 500 ppm (Nilaparvata lugens): < 50%
- pest or weed control at 500 ppm (Musca domestica [2]): < 50%
- mortality at 500 ppm (Musca domestica [3]): < 50%
- mortality at 500 ppm (Blattella germanica): < 50%
- mortality at 500 ppm (Heliothis virescens): < 50%
- mortality at 500 ppm (Spodoptera exigua): 70 to 100%
- mortality at 500 ppm (Diabrotica balteata): < 50%

Reference: US5225607A, “Insecticidal ethers” (Imperial Chemical Industries PLC, priority 1985, dated 1993)
